For this experiment, the target named is T1, human GPR40 (Homo sapiens, UniProt O14842).
T1 construct: expressed in transfected cells
Kind of experiment: Inositol Phosphate Turnover (IP1) Assay. The experiment is classed as cell-based. As to conditions: HEK cells stably expressing human GPR40; CisBio IP-One kit; 60 minutes at 37 degrees; read-out: Human IP1 EC50. How it is done:
Human GPR40 stable cell-lines were generated in HEK cells. The expression plasmids were transfected using lipofectamine (Life Technologies) following manufacturer's instructions. Stable cell-lines were generated following drug selection and single cell cloning. The assay was performed in 384-well format. HEK cells stably expressing human GPR40 were plated at 7500 cells per well in growth medium (DMEM/10% fetal calf serum). Cell plates were then incubated 16 hours at 37 degrees in a 5% CO2 incubator. Measurement of Inositol Phosphate Turnover (IP1) was performed using the CisBio IP-One kit (Part number 62IPAPEB). After the 16 hour incubation, the growth media was removed by centrifugation using the BlueWasher (AusWasher GUI Ver. v1.0.1.8) Protocol #21-“Light Dry” and 10 ul of stimulation buffer (prepared as described in the kit) was added to each well. In a separate plate, compounds were diluted in DMSO (200-fold over the final concentration in the assay well) and 50 nl was acoustically transferred to the appropriate well in the assay cell plate. The plates were then incubated for 60 minutes at 37 degrees in a 5% CO2 incubator. 10 ul of detection buffer (also prepared as described in the IP-One kit) was added to each well and the plates were incubated at room temperature for 60 minutes in the dark. The plates were then read in a Perkin Elmer EnVision or equivalent reader able to measure FRET. […] Data was normalized to % activity using a reference compound and EC50s determined using a standard 4-parameter fit.

Structures are written as SMILES.

The text below walks through data of patent publication US10968232B2 (Merck Sharp & Dohme Corp., priority 2016, dated 2021).

T1 sequence (O14842 whole entry): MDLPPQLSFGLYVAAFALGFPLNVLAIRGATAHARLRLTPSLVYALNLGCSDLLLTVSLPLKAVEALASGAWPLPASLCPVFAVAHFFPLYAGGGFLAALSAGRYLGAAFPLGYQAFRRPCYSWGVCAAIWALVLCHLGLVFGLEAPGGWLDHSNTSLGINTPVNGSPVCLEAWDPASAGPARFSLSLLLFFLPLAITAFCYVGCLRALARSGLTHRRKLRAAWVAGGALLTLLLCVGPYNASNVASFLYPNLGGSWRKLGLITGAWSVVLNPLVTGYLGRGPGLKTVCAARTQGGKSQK

Turning to `Cc1ccc(-c2ccc(OC(F)(F)F)c(C(C)N3CCC4(CCc5ccc([C@H](C6CC6)[C@H](C)C(=O)O)cc5O4)CC3)c2)o1` (mixture of isomers) [Example 122, (2S,3R)-3-cyclopropyl-2-methyl-3-(1′-((RS)-1-(5-(5-methylfuran-2-yl)-2-(trifluoromethoxy)phenyl)eth-yl)spiro[chroman-2,4′-piperidin]-7-yl)propanoic acid], the EC50 (usually the concentration needed to bring the measured effect to its halfway point) worked out at 42.5 nM. Under `C[C@H](C(=O)O)[C@H](c1ccc2c(c1)OC1(CC2)CCN([C@H](C)c2cc(C(F)(F)F)ccc2C(F)(F)F)CC1)C1CC1` [Example 130, Sodium (2S,3R)-3-(1′-((R)-1-(2,5-Bis(trifluoromethyl)phenyl)ethyl)spiro[chromane-2,4′-piperidin]-7-yl)-3-cyclopropyl-2-methylpropanoate] stands 3.1 nM; under `CC(c1cc(F)ccc1OC(F)(F)F)N1CCC2(CCc3ccc([C@H](C4CC4)[C@H](C)C(=O)O)c(F)c3O2)CC1` (stereo partly drawn) [Example 2, (2S,3R)-3-cyclopropyl-3-(8-fluoro-1′-(1-(5-fluoro-2-(trifluoro-methoxy)phenyl)ethyl)-spiro[chroman-2,4′-piperidin]-7-yl)-2-methylpropanoic acid], 3.29 nM; under `COc1ncc(C(F)(F)F)cc1C(C)N1CCC2(CCc3ccc([C@H](C4CC4)[C@H](C)C(=O)O)cc3O2)CC1` (single isomer, unassigned) [Example 102, (2S,3R)-3-cyclopropyl-3-(1′-((R or S)-1-(2-methoxy-5-(trifluoromethyl)pyridin-3-yl)ethyl)spiro-[chroman-2,4′-piperidin]-7-yl)-2-methylpropanoic Acid], 995 nM. In the case of `COc1ccc(C(F)(F)F)c(C(C)N2CCC3(CCc4ccc([C@H](C5CC5)[C@H](C)C(=O)O)cc4O3)CC2)n1` (single isomer, unassigned) [Example 105, sodium (2S,3R)-3-cyclo-propyl-3-(1′-((S or R)-1-(6-methoxy-3-(trifluoromethyl)pyridin-2-yl)ethyl)-spiro-[chroman-2,4′-piperidin]-7-yl)-2-methylpropanoate], the EC50 worked out at 126 nM.

For the compound `COc1cc(N2CCC3(CCc4ccc([C@H](C5CC5)[C@H](C)C(=O)O)cc4O3)CC2)c(Cl)cn1` [Example 55, (2S,3R)-3-(1′-(5-chloro-2-methoxypyridin-4-yl)spiro[chroman-2,4′-piperidin]-7-yl)-3-cyclopropyl-2-methylpropanoic Acid], the EC50 is 7.59 nM. Take `C[C@H](C(=O)O)[C@H](c1ccc2c(c1)OC1(CCCN(Cc3cc(C(F)(F)F)ccc3C(F)(F)F)CC1)CC2)C1CC1` (single isomer, unassigned) [Example 48, sodium (2S,3R)-3-((R or S)-1-(2,5-bis (trifluoromethyl)benzyl)spiro[azepane-4,2′-chroman]-7′-yl)-3-cyclopropyl-2-methyl-propanoate]: the EC50 stood at 1.06 nM.

As to `C[C@H](C(=O)O)[C@H](c1ccc2c(c1)OC1(CCCN([C@H](C)c3cc(C(F)(F)F)ccc3C(F)(F)F)CC1)CC2)C1CC1` (single isomer, unassigned) [Example 50, (2S,3R)-3-((S or R)-1-((R)-1-(2,5-bis (trifluoromethyl)phenyl)ethyl)spiro[azepane-4,2′-chroman]-7′-yl)-3-cyclopropyl-2-methylpropanoic acid], the EC50 was 1.39 nM. Under `C[C@H](C(=O)O)[C@H](c1ccc2c(c1)OC1(CCCN([C@@H](C)c3cc(C(F)(F)F)ccc3C(F)(F)F)CC1)CC2)C1CC1` (single isomer, unassigned) [Example 52, (2S,3R)-3-((S or R)-1-((S)-1-(2,5-bis (trifluoromethyl)phenyl)ethyl)spiro[azepane-4,2′-chroman]-7′-yl)-3-cyclopropyl-2-methylpropanoic acid] stands 2.66 nM.

Turning to `CC[C@@H](c1cc(C(F)(F)F)ccc1C(F)(F)F)N1CCC2(CCc3ccc([C@H](C4CC4)[C@H](C)C(=O)O)cc3O2)CC1` [Example 7, sodium (2S,3R)-3-(1′-((S)-1-(2,5-bis(trifluoro-methyl)phenyl)propyl)-spiro[chroman-2,4′-piperidin]-7-yl)-3-cyclo-propyl-2-methyl-propanoic acid], the 50% effective concentration (EC50) came out at 2.14 nM.

As to `C[C@H](C(=O)O)[C@H](c1ccc2c(c1)OC1(CC2)[C@@H]2CC[C@H]1CN([C@@H](C)c1cc(C(F)(F)F)ccc1C(F)(F)F)C2)C1CC1` (stereo partly drawn) [Example 86, (2S,3R)-3-((1R,5S)-3-((S)-1-(2,5-bis(trifluoro-methyl)phenyl)ethyl)-3-azaspiro[bicyclo[3.2.1]oc-tane-8,2′-chroman]-7′-yl)-3-cyclopropyl-2-methylpropanic acid], the concentration for a half-maximal effect (EC50) is 46.5 nM. Consider `C[C@H](C(=O)O)[C@H](c1ccc2c(c1)OC1(CC2)CCN(Cc2cc(Cl)cc3c2OC(C)(C)C3)CC1)C1CC1` [Example 61, sodium (2S3R)-3-(1′-((5-chloro-2,2-dimethyl-2,3-dihydrobenzofuran-7-yl)methyl)-spiro[chroman-2,4′-piperidin]-7-yl)-3-cyclopropyl-2-methylpropanoate], for which the EC50 amounted to 118 nM. Consider `C[C@H](C(=O)O)[C@H](c1ccc2c(c1)OC1(CC2)CCN(c2cccc3c2c(C(F)(F)F)nn3C)CC1)C1CC1` [Example 36, (2S,3R)-3-cyclopropyl-2-methyl-3-(1′-(1-methyl-3-(trifluoromethyl)-1H-indazol-4-yl)spiro[chroman-2,4′-piperidin]-7-yl)propanoic Acid], for which the EC50 was determined as 4.78 nM. For the compound `CC(c1cc(F)cc(F)c1Cl)N1CCC2(CCc3ccc([C@H](C4CC4)[C@H](C)C(=O)O)cc3O2)CC1` (single isomer, unassigned) [Example 19], the EC50 was 37.6 nM.

Turning to `C[C@H](C(=O)O)[C@H](c1ccc2c(c1)OC1(CC2)CC(N(C)c2ncccc2C(F)(F)F)C1)C1CC1` (stereo partly drawn) [Example 90, (2S,3R)-3-cyclo-propyl-2-methyl-3-(3′-(methyl(3-(trifluoro-methyl)pyridin-2-yl)amino)spiro[chro-man-2,1′-cyclobutan]-7-yl)propanoic acid], the half-maximal effective concentration (EC50) was determined as 7.24 nM. With `C[C@H](C(=O)O)[C@H](c1ccc2c(c1)OC1(CC2)CCN(S(=O)(=O)c2ccc(Cl)cc2Cl)CC1)C1CC1` [Example 45], the EC50 came to 148 nM. For the compound `C[C@H](C(=O)O)[C@H](c1ccc2c(c1)OC1(CC2)[C@@H]2CC[C@H]1CN([C@@H](C)c1cc(F)ccc1C(F)(F)F)C2)C1CC1` (single isomer, unassigned) [Example 85], the EC50 worked out at 36.2 nM. In the case of `C[C@H](C(=O)O)[C@H](c1ccc2c(c1)OC1(CC2)CC(NCc2cc(C(F)(F)F)ccc2C(F)(F)F)C1)C1CC1` (single isomer, unassigned) [Example 96], the concentration for a half-maximal effect (EC50) worked out at 12.3 nM.

For `C[C@H](C(=O)O)[C@H](c1ccc2c(c1)OC1(CC2)CCC(N(C)c2ncccc2C(F)(F)F)CC1)C1CC1` (single isomer, unassigned) [Example 69], the EC50 came to 0.416 nM. For `C[C@H](C(=O)O)[C@H](c1ccc2c(c1)OC1(CC2)CC(N(C)[C@H](C)c2cc(C(F)(F)F)ccc2C(F)(F)F)C1)C1CC1` (stereo partly shown) [Example 101] the value was 17 nM.

As to `CCC(c1cc(C(F)(F)F)ccc1C(F)(F)F)N1CCC2(CCc3ccc([C@H](C4CC4)[C@H](C)C(=O)O)cc3O2)CC1` (stereo in doubt) [Example 9, (2S,3R)-3-(1′-((S)-1-(2,5-bis(trifluoromethyl)phenyl)propyl)spiro[chroman-2,4′-piperidin]-7-yl)-3-cyclopropyl-2-methylpropanoic Acid], the EC50 came to 0.73 nM.

`CC(c1cc(C(F)(F)F)ccc1C(F)(F)F)N(C)C1CC2(CCc3ccc([C@H](C4CC4)[C@H](C)C(=O)O)cc3O2)C1` (stereo partly drawn) [Example 99, (2S,3R)-3-(3′-((1-(2,5-bis(trifluoromethyl)phenyl)ethyl)(methyl)amino)spiro[chroman-2,1′-cyclobutan]-7-yl)-3-cyclopropyl-2-methylpropanoic Acid]: the concentration for a half-maximal effect (EC50) turned out to be 1.62 nM. For `C[C@H](C(=O)O)[C@H](c1ccc2c(c1)OC1(CC2)[C@@H]2CC[C@H]1CN([C@H](C)c1cc(F)ccc1C(F)(F)F)C2)C1CC1` (stereo partly drawn) [Example 84, (2S,3R)-3-cyclopropyl-3-((1R,5S)-3-((R)-1-(5-fluoro-2-(trifluoro-methyl)phenyl)ethyl)-3-azaspiro[bicyclo[3.2.1]oc-tane-8,2′-chroman]-7′-yl)-2-methylpropanoic acid] the value was 28.5 nM. For `CC(c1cc(Cl)ccc1OC(F)F)N1CCC2(CCc3ccc([C@H](C4CC4)[C@H](C)C(=O)O)c(F)c3O2)CC1` (single isomer, unassigned) [Example 33, (2S,3R)-3-(1′-((R or S)-1-(5-chloro-2-(difluoromethoxy)phenyl)ethyl)-8-fluorospiro-[chroman-2,4′-piperidin]-7-yl)-3-cyclopropyl-2-methylpropanoic Acid] the value was 50 nM. On to `C[C@H](C(=O)O)[C@H](c1ccc2c(c1)OC1(CC2)CCN(S(=O)(=O)c2cc(C(F)(F)F)ccc2Cl)CC1)C1CC1` [Example 25, (2S,3R)-3-(1′-((2-chloro-5-(trifluoromethyl)phenyl)sulfonyl)spiro[chroman-2,4′-piperidin]-7-yl)-3-cyclopropyl-2-methylpropanoic Acid], for which the concentration giving a half-maximal response (EC50) was 18.3 nM.
